This assay concerns the target PARP7 (Homo sapiens (Human), UniProt Q7Z3E1). The assay can be described thus: TR-FRET assay: displacement of biotinylated Probe A from the TIPARP active site (Enzymatic Assay for Inhibition of PARP7). It is filed as binding. Conditions: TIPARP 6 nM, Probe A 2 nM, 25° C. As to the method: Example A. Enzymatic Assay for Inhibition of PARP7
Displacement of Probe A, a biotinylated probe binding to the TIPARP active site, was measured using a time-resolved fluorescence energy transfer (TR-FRET) assay. 20 nL of a dose response curve of each test compound was spotted in black 384-well polystyrene proxiplates (Perkin Elmer) using a Mosquito (TTP Labtech). Reactions were performed in a 8 μl volume by adding 6 μL of TIPARP and Probe A in assay buffer (20 mM HEPES pH=8, 100 mM NaCl, 0.1% bovine serum albumin, 2 mM DTT and 0.002% Tween20), incubating with test compound at 25° C. for 30 min, then adding 2 μL of ULight-anti 6×His and LANCE Eu-W1024 labeled streptavidin (Perkin Elmer). The final concentrations of TIPARP and Probe A were 6 nM and 2 nM, respectively. The final concentration of ULight-anti 6×His and LANCE Eu-W1024 labeled streptavidin were 4 nM and 0.25 nM, respectively. Reactions were incubated at 25° C. for an additional 30 min, then read on an Envision platereader equipped with a LANCE/DELFIA top mirror (Perkin Elmer) using excitation of 320 nm and emission of 615 nm and […] with a […]. The ratio of the 665/615 nm emission were calculated for each well to determine the amount of complex of TIPARP and Probe Ain each well. Control wells containing a negative control of 0.25% DMSO vehicle or a positive control of 100 μM 5-(5-(piperidin-4-yloxy)isoindolin-2-yl)-4-(trifluoromethyl)pyridazin-3(2H)-one were used to calculate the % inhibition as described below:
[formula] where TRFcmpd is the TR-FRET ratio from the compound treated well, TRFmin is the TR-FRET ratio from the 5-(5-(piperidin-4-yloxy)isoindolin-2-yl)-4-(trifluoromethyl)pyridazin-3(2H)-one—treated positive control well and TRFmax is the TR-FRET ratio from the DMSO-treated negative control well. The % inhibition values were plotted as a function of compound concentration and the following 4-parameter fit was applied to derive the IC50 values:
[formula] where top and bottom are normally allowed to float, but may be fixed at 100 or 0 respectively in a 3-parameter fit. The Hill Coefficient is normally allowed to float but may also be fixed at 1 in a 3-parameter fit. Y is the % inhibition and X is the compound concentration. Synthesis of Probe A

SMILES strings stand for the structures.

Chain of PARP7 (Q7Z3E1 whole entry): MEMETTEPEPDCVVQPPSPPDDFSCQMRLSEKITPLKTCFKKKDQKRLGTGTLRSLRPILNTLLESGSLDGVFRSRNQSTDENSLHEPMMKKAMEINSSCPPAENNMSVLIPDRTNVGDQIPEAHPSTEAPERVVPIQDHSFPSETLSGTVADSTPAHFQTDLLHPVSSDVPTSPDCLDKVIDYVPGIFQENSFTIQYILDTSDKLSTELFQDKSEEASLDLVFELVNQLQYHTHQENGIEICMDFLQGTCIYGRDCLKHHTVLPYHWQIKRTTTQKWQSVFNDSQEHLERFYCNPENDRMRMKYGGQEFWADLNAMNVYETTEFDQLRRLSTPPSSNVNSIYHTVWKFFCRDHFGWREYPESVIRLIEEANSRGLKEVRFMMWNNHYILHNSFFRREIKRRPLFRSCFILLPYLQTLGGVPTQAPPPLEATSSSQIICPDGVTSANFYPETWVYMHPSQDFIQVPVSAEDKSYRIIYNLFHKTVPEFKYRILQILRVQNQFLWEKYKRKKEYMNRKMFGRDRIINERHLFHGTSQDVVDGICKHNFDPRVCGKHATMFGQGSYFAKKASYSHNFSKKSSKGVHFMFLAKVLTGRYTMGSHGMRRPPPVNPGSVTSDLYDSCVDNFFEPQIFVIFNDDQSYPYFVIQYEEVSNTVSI

In general, IC50 refers to the point on the concentration scale where inhibition reaches its midpoint. Higher therefore signals weaker potency. As to `C[C@@H](COC1CCN(C2CCN(c3cnc(C(F)(F)F)cn3)CC2)C1=O)Nc1cn[nH]c(=O)c1Br` (stereo partly drawn) [Example 12, 4-bromo-5-(((2S)-1-((2-oxo-1-(1-(5-(trifluoromethyl)pyrazin-2-yl)piperidin-4-yl)pyrrolidin-3-yl)oxy)propan-2-yl)amino)pyridazin-3(2H)-one], the IC50 is under 100 nM. To `C[C@@H](CO[C@H]1CCN(C2CCN(c3cnc(C(F)(F)F)cn3)CC2)C1=O)Nc1cn[nH]c(=O)c1C(F)(F)F` [Example 13A, 5-(((S)-1-(((S)-2-oxo-1-(1-(5-(trifluoromethyl)pyrazin-2-yl)piperidin-4-yl)pyrrolidin-3-yl)oxy)propan-2-yl)amino)-4-(trifluoromethyl)pyridazin-3(2H)-one] belongs 100 to 1000 nM; to `C[C@@H](CO[C@@H]1CCN(C2CCN(c3cnc(C(F)(F)F)cn3)CC2)C1=O)Nc1cn[nH]c(=O)c1C(F)(F)F` [Example 13B, 5-(((S)-1-(((R)-2-oxo-1-(1-(5-(trifluoromethyl)pyrazin-2-yl)piperidin-4-yl)pyrrolidin-3-yl)oxy)propan-2-yl)amino)-4-(trifluoromethyl)pyridazin-3(2H)-one], under 100 nM; to `C[C@@H](CO[C@H]1CCN(C2CCN(c3ccc(C#N)cn3)CC2)C1=O)Nc1cn[nH]c(=O)c1C(F)(F)F` [Example 14A, 6-(4-((S)-2-oxo-3-((S)-2-((6-oxo-5-(trifluoromethyl)-1,6-dihydropyridazin-4-yl)amino)propoxy)pyrrolidin-1-yl)piperidin-1-yl)nicotinonitrile], at least 1000 nM. The value for `C[C@@H](CO[C@@H]1CCN(C2CCN(c3ccc(C#N)cn3)CC2)C1=O)Nc1cn[nH]c(=O)c1C(F)(F)F` [Example 14B, 6-(4-((R)-2-oxo-3-((S)-2-((6-oxo-5-(trifluoromethyl)-1,6-dihydropyridazin-4-yl)amino)propoxy)pyrrolidin-1-yl)piperidin-1-yl)nicotinonitrile] was under 100 nM; that for `C[C@@H](CO[C@H]1CCN(C2CCN(c3ncc(C(F)F)cn3)CC2)C1=O)Nc1cn[nH]c(=O)c1C(F)(F)F` [Example 15A, 5-(((S)-1-(((S)-1-(1-(5-(difluoromethyl)pyrimidin-2-yl)piperidin-4-yl)-2-oxopyrrolidin-3-yl)oxy)propan-2-yl)amino)-4-(trifluoromethyl)pyridazin-3(2H)-one] was 100 to 1000 nM. With `C[C@@H](CO[C@@H]1CCN(C2CCN(c3ncc(C(F)F)cn3)CC2)C1=O)Nc1cn[nH]c(=O)c1C(F)(F)F` [Example 15B, 5-(((S)-1-(((R)-1-(1-(5-(difluoromethyl)pyrimidin-2-yl)piperidin-4-yl)-2-oxopyrrolidin-3-yl)oxy)propan-2-yl)amino)-4-(trifluoromethyl)pyridazin-3(2H)-one], the concentration for half-maximal inhibition (IC50) was under 100 nM. The value for `C[C@@H](CO[C@@H]1CCN(C2CCN(c3ncc(Cl)cn3)CC2)C1=O)Nc1cn[nH]c(=O)c1C(F)(F)F` [Example 16, 5-(((S)-1-(((R)-1-(1-(5-chloropyrimidin-2-yl)piperidin-4-yl)-2-oxopyrrolidin-3-yl)oxy)propan-2-yl)amino)-4-(trifluoromethyl)pyridazin-3(2H)-one] was under 100 nM; that for `COC[C@@H](CO[C@H]1CCN(C2CCN(c3ccc(C#N)cn3)CC2)C1=O)Nc1cn[nH]c(=O)c1C(F)(F)F` [Example 17A, 6-(4-((S)-3-((S)-3-methoxy-2-((6-oxo-5-(trifluoromethyl)-1,6-dihydropyridazin-4-yl)amino)propoxy)-2-oxopyrrolidin-1-yl)piperidin-1-yl)nicotinonitrile] was 100 to 1000 nM. `COC[C@@H](CO[C@@H]1CCN(C2CCN(c3ccc(C#N)cn3)CC2)C1=O)Nc1cn[nH]c(=O)c1C(F)(F)F` [Example 17B, 6-(4-((R)-3-((S)-3-methoxy-2-((6-oxo-5-(trifluoromethyl)-1,6-dihydropyridazin-4-yl)amino)propoxy)-2-oxopyrrolidin-1-yl)piperidin-1-yl)nicotinonitrile] registered an IC50 of under 100 nM.

The record behind these values is patent publication US11691969B2, “Pyridazinones as PARP7 inhibtors” (Ribon Therapeutics, Inc., priority 2019, dated 2023).
